From patent publication US20240373849A1, “INSECT NEUROPEPTIDE ANALOGUES” (THE UNIVERSITY COURT OF THE UNIVERSITY OF GLASGOW, priority 2020, published 2024)
Square brackets hold non-standard residues; d marks the D form. NMeL = CN[C@@H](CC(C)C)C(=O)O; NMeV = CN[C@H](C(=O)O)C(C)C; NMeA = CN[C@@H](C)C(=O)O; Aib = CC(C)(N)C(=O)O

Assays:
[1] = tested on: M. persicae; test: Feeding of aphids with peptides in artificial diet (Example 1); type: in vivo, Myzus persicae
Description: A standard artificial diet for M. persicae was produced as described in Van Emden (2009) and provided the basal diet to which peptides were added for screening purposes. Peptides were diluted individually in the artificial diet to a pre-determined concentration.
Feeding apparatus were constructed using a set-up developed by Sadeghi et al (2009). For this, a piece of Parafilm was stretched over a Plexiglas ring (h=4 cm, Ø=3 cm) and 100 μl of the artificial diet containing the desired neuropeptide analogue was pipette onto the Parafilm membrane. A second piece of Parafilm, stretched to 4 times the original thickness, was stretched over the original layer, sandwiching the artificial diet between two layers of Parafilm. A strip of Parafilm was wrapped around the circumference of the Plexiglas ring, sealing in the diet. A plastic ring (h=1.2 cm, Ø=3.4 cm) was subsequently placed over the Parafilm layer, creating a walled chamber in which to house test aphids in contact with the Parafilm layer containing the artificial diet. Finally, a small Petri dish (h=1 cm, Ø=3.6 cm), modified for ventilation with net cloth, was placed on top of each feeding apparatus to prevent aphid escape.
To obtain aphids for use in experiments, reproducing anholocyclic adults were placed on individual excised leaves of Chinese cabbage at densities of 5 adults per leaf and allowed to reproduce for 24 h. The stem of each excised leaf was held within a 0.5 mL Eppendorf tube containing water via a punctured hole in the Eppendorf lid, and placed individually within a microcage (L=4 cm, Ø=9.5 cm). Following 24h, adults were removed and resultant first instar nymphs (<1 day old and synchronised in age to within 24h) retained. Nymphs were allowed to develop on the Chinese cabbage for 5 days. On day 5, (3rd instar) nymphs were transferred onto the artificial diet containing a neuropeptide analogue at densities of 1 per feeding chamber and monitored daily until death. Aphids were transferred to fresh artificial diet (containing neuropeptide analogue or water control) every 5 days.
The water control group was used to determine baseline lethality. Results for neuropeptide analogues were calculated as % lethality in the remaining population after adjustment for the baseline.

[2] = tested on: Myzus persicae aphids; test: Topical application by spraying, Potter Spray Tower (Example 3); type: in vivo; conditions: 48 hours post spray
Description: Aphids were exposed to test peptides in the absence of additional external stress conditions.
Brassica rapa (Chinese cabbage; Wong Bok) were infested with 30 adult Myzus persicae aphids per plant. Aphids were left at least 2 hours to settle and begin feeding from the host plant.
Potter Spray Tower (Burkard Manufacturing) was ‘primed’ by spraying 1000 μl of liquid coating the inside of the tower. Vehicle spray only (Croda ATPlus UEP 100 LQ-(CQ) 0.1% v/v) was used as a control.
Spray volumes for all solutions were 3000 μl. […] After spraying was completed the plant was allowed to rest on the spray platform for 30 seconds to allow settling of the sprayed chemical.
Post peptide application, each condition was placed into its own individual Bugdorm (Watkins and Doncaster, 44545), to prevent repulsed or displaced aphids moving from one condition to another. Numbers of alive and dead aphids on the plant were counted 48 hours post spray, and the presence of any fresh nymphs noted. Plants were watered prior to spraying but not afterwards to eliminate the possibility of drowning any aphids present or washing off the sprayed liquid.
The vehicle control group was used to determine baseline lethality. Results for neuropeptide analogues were calculated as % lethality in the remaining population after adjustment for the baseline.

[3] = tested on: Drosophila suzukii larvae; test: Drosophila suzukii larval feeding (Example 8; peptide screening); type: in vivo; conditions: for Feeding D. suzukii, % lethality in population after adjustment for baseline: 10^−5 M, 48 hr exposure
Description: (§1) First to Fourth generations of peptides were produced with varying structures and tested for CAPA receptor agonist activity, and screened for lethality in vivo against D. suzukii and M. persicae as per methods in example 2 and example 8. The top performing peptides were selected and gave rise to the list of CAPA1 and CAPA2 peptides provided above in Table 1 which were then further tested in the following applied examples.
Peptides were tested at concentrations ranging from [10^−4 M] to [10^−7 M] in a final volume of 200 μl of 0.8% agarose containing 0.09% m-Cresol purple pH marker dye (Sigma) and 5% sucrose (Sigma).
Agarose was melted in dH2O, before addition of sucrose and dye. The agarose/dye solution was then allowed to cool to 60° C. 96 well plates (flat-bottomed 3596 TC-plates; Corning) containing 20 μl volumes of neuropeptide per well were prepared, and 180 μl agarose/dye solution dispensed into each well via a Distriman repetitive micro-pipettor (Gilson). Controls contained 20 μl dH2O as a ‘sham’ treatment with 180 μl of the 0.8% agarose/dye solution. Plates were agitated at 800 rpm, to ensure mixing, at 60° C. (Eppendorf Thermomixer C). Plates were then allowed to cool, and agarose/dye solution solidify, prior to use.
Each peptide was assayed with a minimum of 7 to maximum 9 late L2/early L3 Spotted wing Drosophila, Drosophila suzukii, (feeding) larvae per well, minimum n=8 wells per peptide concentration and a minimum n=12 control wells per plate. The selected larvae were first washed 2× in ice cold Drosophila Schneider's liquid medium (ThermoFisher) before insertion into wells to remove extraneous food. After complete insertion of all larvae the plates were covered with breathable sealing membrane for multi-well plates (Sigma).
Larvae were assayed for lethality after 48 hr exposure at 21° C. and findings recorded. During examination the assay plate was kept on ice, to reduce larval locomotor activity (wandering), and larvae in each well were examined using a binocular stereomicroscope (Zeiss).
The water control group was used to determine baseline lethality. Results for neuropeptide analogues were calculated as % lethality in the remaining population after adjustment for the baseline. Results are shown in Tables 7 and 8 below, and in FIG. 1.

[4] = tested on: M. persicae; test: Feeding of aphids with peptides in artificial diet (Example 2; peptide screening, honeydew); type: in vivo, Myzus persicae
Text: as §1
The aphid feeding protocol was devised according to Sadeghi et al (2009) as explained in example 1. Feeding discs were designed and manufactured as above. A standard sucrose-based artificial diet for M. persicae (30 aphids per chamber, 3 chambers per experiment unless otherwise stated) was produced as described in example 1 (Sadeghi et al, J. Insect Science, 2009) and provided the basal diet to which peptides were added for screening purposes. Peptides were diluted individually in the artificial diet to 10^−5 M. Lethality was scored after up to 120 hours (IRAC guidelines for aphid testing).
Membrane discs were also included to collect ‘honeydew’ secreted by feeding aphids and stained with ninhydrin to observe feeding patterns.
Comparison of purple stain in controls to treated aphids, show there is very little colour on many membranes where peptides were added.
Capa peptides cause mortality in M. persicae via feeding: At 120 hours, AH383 and AH387 peptides induce ˜60% mean (and median) lethality. Although mean lethality is lower with AH270/PEGAH270 (40%), 100% lethality is observed in one sample of 30 insects (AH270); and 90% in at least one sample of each of AH383, AH387 and PEGAH270 (FIG. 3). Note that PEGAH270 is a pegylated form of peptide AH270.

[5] = tested on: D. suzukii larvae; test: Drosophila suzukii larval feeding (Example 9; dose response); type: in vivo; conditions: for % Lethality ± SEM: Table 6, 10^−5 M, 48 hr and/or 72 h exposure (FIG. 7: AH270/PEGAH270 120 h)
Description: Dose response experiments were carried out for AH382, AH383, AH188, data shown for AH382 (a), AH383 (b), AH188 (c, 48 hours). Data are mean % lethality ±SEM for concentrations between 10^−4 M and 10^−7 M (a) AH382, (b) AH383 72 hours treatment; and between 10^−5 M and 10^−9 M (AH188, 3c), 48 hours treatment. The LD50 for AH382, AH383 and AH188 is 10^−6 M.
Further larval feeding assays with D. suzukii larvae were conducted as explained above in example 7. A total of 88 peptides were tested against D. suzukii larvae in 96 well plates at 10^−5 M in a final volume of 200 μl of 0.8% agarose containing 0.09% m-Cresol purple pH marker dye (Sigma) and 5% sucrose (Sigma). Controls contained dH2O (18% lethality) or native Capa-2 peptide (38% lethality) as a ‘sham’ treatment. Each peptide was assayed with a minimum of 7 to maximum 9 late L2/early L3 larvae per well, minimum n=8 wells per peptide concentration (minimum 56 larvae) and a minimum n=12 control wells (minimum 84 larvae) per plate. Larvae were assayed for lethality after 48 hr and/or 72 h exposure at 21° C. using a binocular stereomicroscope and findings recorded. Candidate peptides were also tested between 10^-4 and 10^-7 M (dose response curve).
Candidate peptides for D. suzukii with 70%-90% lethality are indicated below, in Table 6.

[6] = biological target: T1, Drosophila melanogaster capa GPCR, capaR (Drosophila melanogaster, UniProt Q8ITC7 1-477); test: cell-based or functional assay
T1 sequence (looked up): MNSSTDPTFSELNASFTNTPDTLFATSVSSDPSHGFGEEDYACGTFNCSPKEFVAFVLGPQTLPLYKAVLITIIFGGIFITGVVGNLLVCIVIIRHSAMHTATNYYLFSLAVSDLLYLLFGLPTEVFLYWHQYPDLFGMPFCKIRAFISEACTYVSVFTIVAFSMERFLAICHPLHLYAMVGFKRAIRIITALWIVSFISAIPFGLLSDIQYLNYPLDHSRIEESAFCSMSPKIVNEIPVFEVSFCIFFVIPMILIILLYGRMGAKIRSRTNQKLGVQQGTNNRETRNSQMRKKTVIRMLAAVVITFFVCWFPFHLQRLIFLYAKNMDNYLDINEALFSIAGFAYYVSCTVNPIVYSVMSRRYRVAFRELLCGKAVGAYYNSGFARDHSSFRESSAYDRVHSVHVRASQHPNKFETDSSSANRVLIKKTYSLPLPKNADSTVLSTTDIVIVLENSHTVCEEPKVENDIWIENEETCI

H-(Me)L-YAFARV-NH2 (H-[NMeL]YAFARV-NH2; SMILES CN[C@@H](CC(C)C)C(=O)N[C@@H](Cc1ccc(O)cc1)C(=O)N[C@@H](C)C(=O)N[C@@H](Cc1ccccc1)C(=O)N[C@@H](C)C(=O)N[C@@H](CCCNC(=N)N)C(=O)N[C@H](C(N)=O)C(C)C) [AH383]
Feeding Aphid, % lethality in population after adjustment for baseline ([1]; 10^−5 M): 10% | Spray Aphid, % lethality in population after adjustment for baseline ([2]; 10^−4 M): 42% | Spray Aphid, % lethality in population after adjustment for baseline ([2]; 10^−5 M): 13% | Feeding D. suzukii, % lethality in population after adjustment for baseline [3]: 56% | mean lethality ([4]; M. persicae feeding, 10^−5 M, 120 hours): ~60% | lethality observed in one sample of 30 insects ([4]; M. persicae feeding, 10^−5 M, 120 hours, single sample): 90% | LD50 ([5]; 72 hours treatment): 10^−6 M | % Lethality ± SEM [5]: 80 ± 3%

H-LYAFARV-NH2 [AH188]
Feeding Aphid, % lethality in population after adjustment for baseline ([1]; 10^−4 M): 23% | Feeding Aphid, % lethality in population after adjustment for baseline ([1]; 10^−5 M): 23% | Feeding Aphid, % lethality in population after adjustment for baseline ([1]; 10^−5 M, @72 h): 1 (33%@72 h) | Feeding Aphid, % lethality in population after adjustment for baseline ([1]; 10^−6 M): 22% | Feeding Aphid, % lethality in population after adjustment for baseline ([1]; 10^−7 M): 17% | Spray Aphid, % lethality in population after adjustment for baseline ([2]; 10^−4 M): 2% | Feeding D. suzukii, % lethality in population after adjustment for baseline [3]: 71% | D. suzukii (Mean% Lethality ± SD) ([3]; Peptide screening, Table 5, blank control 20.33): 70.50% | D. suzukii (Sig Diff Grp) ([3]; Peptide screening, Table 5, difference in survival): ABC | M. persicae (% Lethality) ([4]; Peptide screening, Table 5): 22% | LD50 ([5]; 48 hours treatment): 10^−6 M | % Lethality ± SEM [5]: 71 ± 6%

B1: AH382 (H-LY-(Me)A-FARV-NH2) (peptide)
peptide: H-LY[NMeA]FARV-NH2
SMILES: CC(C)C[C@H](N)C(=O)N[C@@H](Cc1ccc(O)cc1)C(=O)N(C)[C@@H](C)C(=O)N[C@@H](Cc1ccccc1)C(=O)N[C@@H](C)C(=O)N[C@@H](CCCNC(=N)N)C(=O)N[C@H](C(N)=O)C(C)C
CapaR Ca^2+ Agonist response at 10^-7 M [6]: 36 % of native Capa1 activity

B2: AH387 (H-LY-Aib-FARV-NH2) (peptide)
peptide: H-LY[Aib]FARV-NH2
SMILES: CC(C)C[C@H](N)C(=O)N[C@@H](Cc1ccc(O)cc1)C(=O)NC(C)(C)C(=O)N[C@@H](Cc1ccccc1)C(=O)N[C@@H](C)C(=O)N[C@@H](CCCNC(=N)N)C(=O)N[C@H](C(N)=O)C(C)C
CapaR Ca^2+ Agonist response at 10^-7 M [6]: 17 % of native Capa1 activity

H-LYAFARV-NH2 [AH188 (H-LYAFARV-NH2)]
CapaR Ca^2+ Agonist response at 10^-7 M [6]: 64 % of native Capa1 activity

B3: AH383 (H-(Me)L-YAFARV-NH2) (peptide)
peptide: H-[NMeL]YAFARV-NH2
SMILES: CN[C@@H](CC(C)C)C(=O)N[C@@H](Cc1ccc(O)cc1)C(=O)N[C@@H](C)C(=O)N[C@@H](Cc1ccccc1)C(=O)N[C@@H](C)C(=O)N[C@@H](CCCNC(=N)N)C(=O)N[C@H](C(N)=O)C(C)C
CapaR Ca^2+ Agonist response at 10^-7 M [6]: 26 % of native Capa1 activity

B4: AH380 (H-LYAFAR-(Me)V-NH2) (peptide)
peptide: H-LYAFAR[NMeV]-NH2
SMILES: CC(C)C[C@H](N)C(=O)N[C@@H](Cc1ccc(O)cc1)C(=O)N[C@@H](C)C(=O)N[C@@H](Cc1ccccc1)C(=O)N[C@@H](C)C(=O)N[C@@H](CCCNC(=N)N)C(=O)N(C)[C@H](C(N)=O)C(C)C
CapaR Ca^2+ Agonist response at 10^-7 M [6]: 14 % of native Capa1 activity
